Assay results taken from the NIST ThermoML archive (doi:10.1007/s10765-005-8089-2).

Tests used:
[1] = Liquid
[2] = xn = mol fraction of the nth substance listed; conditions: Liquid, Falling or rolling sphere viscometry, x1 = 1

CO [methanol]
viscosity [mPa·s], [1], Capillary tube (Ostwald / Ubbelohde) method
Conditions	100 kPa	20000 kPa	40000 kPa	60000 kPa	80000 kPa	100000 kPa
293.15 K	0.583	0.646	0.706	0.767	0.83	0.894
313.15 K	0.445	0.497	0.546	0.593	0.64	0.683
333.15 K	0.343	0.386	0.424	0.462	0.501	0.543
353.15 K	–	0.303	0.337	0.368	0.4	0.433

CCO [ethanol] + Cc1ccccc1
viscosity [mPa·s], [2]
Conditions	100 kPa	20000 kPa	40000 kPa	60000 kPa	80000 kPa	100000 kPa
293.15 K	1.194	1.344	1.494	1.647	1.797	1.955
313.15 K	0.826	0.948	1.059	1.171	1.282	1.392
333.15 K	0.59	0.683	0.769	0.851	0.934	1.015
353.15 K	–	0.51	0.574	0.636	0.699	0.763

CCO [ethanol]
viscosity [mPa·s], [1], Falling or rolling sphere viscometry
Conditions	100 kPa	20000 kPa	40000 kPa	60000 kPa	80000 kPa	100000 kPa
293.15 K	1.194	1.344	1.494	1.647	1.797	1.955
313.15 K	0.826	0.948	1.059	1.171	1.282	1.392
333.15 K	0.59	0.683	0.769	0.851	0.934	1.015
353.15 K	–	0.51	0.574	0.636	0.699	0.763
